Laboratory results: patent publication US12180207B2 (ARRAY BIOPHARMA INC., priority 2018, dated 2024)

Experiments:
[1] = biological target: HEK-293 cells transfected with dox-inducible human wild type FGFR3 (Homo sapiens (Human), UniProt P22607); test: FGFR3 pFGFR cell assay (ELISA); format: cell-based; conditions: HEK-293 dox-inducible FGFR3, 1 hour compound, 100 ng/ml FGF-acidic
How it was run: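 Doxycycline-induced (1 μg/ml) HEK-293 cells expressing wild-type human FGFR3, treated 1 h with compound (1:3 series, top final 5 μM), then stimulated 5 min with 100 ng/ml FGF-acidic. Phospho-FGFR3 measured by ELISA (total FGFR3 capture, phosphotyrosine detection, OD 450 nm); IC50 from 4-parameter fit of POC values.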

[2] = biological target: FGFR3 (SEQ ID NO: 5, amino acids 449-759) (Homo sapiens (Human), UniProt P22607); test: LC/MS FGFR3 kobs assay (covalent protein modification); format: binding; conditions: 500 nM FGFR3, 3 μM compound
How it was run: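 The observed rate constant kobs comes from an exponential decay fit of percent unmodified kinase over time. Covalent modification was quantified by Q-TOF LC/MS of formic acid-quenched samples, normalized against DMSO controls.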

[3] = biological target: recombinant human FGFR2 cytoplasmic domain (amino acids 403-822) (Homo sapiens (Human), UniProt P21802); test: FGFR2 enzyme activity assay (LanthaScreen TR-FRET); format: biochemical; conditions: 15 μM ATP, 20 min incubation at 22° C., average of multiple determinations if made, read-out: FGFR2 Enz FRET IC50
How it was run: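 His-tagged FGFR2 cytoplasmic domain ([…]) with 100 nM Alexa Fluor 647-poly-GT peptide and 15 μM ATP in HEPES/MgCl2/Triton buffer, pH 7.5, 2% DMSO, 20 min at 22 °C. EDTA-quenched, Eu-PY20 antibody added, TR-FRET read after 60 min.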

[4] = biological target: HEK-293 cells transfected with dox-inducible human wild type FGFR1 (Homo sapiens (Human), UniProt P11362); test: FGFR1 pERK cell assay; format: cell-based; conditions: HEK-293 dox-inducible FGFR1, 1 hour compound, 100 ng/ml FGF-acidic; maximum concentration 5 μM
How it was run: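 In HEK-293 cells with dox-induced human wild-type FGFR1, compounds (1:3 dilutions, top 5 μM final) were applied 1 h at 37°C before 5 min stimulation with 100 ng/ml FGF-acidic. Phospho-ERK1/2 measured by MSD sandwich immunoassay; IC50 from 4-parameter fit of POC versus vehicle and control compound.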

Sequence of recombinant human FGFR2 cytoplasmic domain (amino acids 403-822) (P21802 402-821): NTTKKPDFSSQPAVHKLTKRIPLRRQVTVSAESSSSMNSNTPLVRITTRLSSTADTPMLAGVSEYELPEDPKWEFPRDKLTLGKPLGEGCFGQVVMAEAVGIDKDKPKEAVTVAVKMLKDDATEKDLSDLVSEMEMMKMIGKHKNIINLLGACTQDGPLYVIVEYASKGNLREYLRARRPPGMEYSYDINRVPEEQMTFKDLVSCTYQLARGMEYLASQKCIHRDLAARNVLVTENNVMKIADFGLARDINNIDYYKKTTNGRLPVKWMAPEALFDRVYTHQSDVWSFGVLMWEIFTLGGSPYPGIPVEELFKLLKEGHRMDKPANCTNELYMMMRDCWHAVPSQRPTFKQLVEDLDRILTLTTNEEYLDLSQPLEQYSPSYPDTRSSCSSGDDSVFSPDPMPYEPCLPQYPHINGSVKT
Sequence of FGFR3 (SEQ ID NO: 5, amino acids 449-759) (P22607 449-759): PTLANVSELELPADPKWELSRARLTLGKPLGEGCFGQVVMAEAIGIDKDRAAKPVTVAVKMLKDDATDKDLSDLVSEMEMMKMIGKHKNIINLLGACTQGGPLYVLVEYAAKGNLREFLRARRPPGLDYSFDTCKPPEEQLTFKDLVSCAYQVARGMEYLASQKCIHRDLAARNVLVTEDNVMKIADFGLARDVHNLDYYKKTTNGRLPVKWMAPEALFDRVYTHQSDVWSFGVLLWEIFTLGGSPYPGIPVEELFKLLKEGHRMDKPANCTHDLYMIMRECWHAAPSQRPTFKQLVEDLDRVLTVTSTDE
Sequence of HEK-293 cells transfected with dox-inducible human wild type FGFR3 (P22607 23-806): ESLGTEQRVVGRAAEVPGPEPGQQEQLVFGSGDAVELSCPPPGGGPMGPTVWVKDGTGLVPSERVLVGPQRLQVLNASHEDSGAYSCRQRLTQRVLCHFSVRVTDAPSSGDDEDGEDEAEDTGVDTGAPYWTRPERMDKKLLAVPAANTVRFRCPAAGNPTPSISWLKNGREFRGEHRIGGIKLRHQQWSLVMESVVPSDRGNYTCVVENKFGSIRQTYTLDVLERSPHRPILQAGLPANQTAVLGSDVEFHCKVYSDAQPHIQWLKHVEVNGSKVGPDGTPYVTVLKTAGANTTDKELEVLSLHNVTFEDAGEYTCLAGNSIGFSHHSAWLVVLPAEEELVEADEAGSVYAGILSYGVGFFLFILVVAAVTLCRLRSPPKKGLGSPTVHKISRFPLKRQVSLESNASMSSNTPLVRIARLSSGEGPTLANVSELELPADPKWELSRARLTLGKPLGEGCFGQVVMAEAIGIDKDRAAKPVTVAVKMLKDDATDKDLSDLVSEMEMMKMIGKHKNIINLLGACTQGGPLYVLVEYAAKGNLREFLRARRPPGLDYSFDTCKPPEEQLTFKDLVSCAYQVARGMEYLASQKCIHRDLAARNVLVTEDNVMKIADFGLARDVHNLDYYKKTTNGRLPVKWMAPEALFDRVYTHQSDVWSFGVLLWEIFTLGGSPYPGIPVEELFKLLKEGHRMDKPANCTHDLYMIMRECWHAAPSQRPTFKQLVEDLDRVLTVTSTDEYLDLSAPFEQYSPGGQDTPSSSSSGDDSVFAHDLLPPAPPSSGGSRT
Sequence of HEK-293 cells transfected with dox-inducible human wild type FGFR1 (P11362 22-822): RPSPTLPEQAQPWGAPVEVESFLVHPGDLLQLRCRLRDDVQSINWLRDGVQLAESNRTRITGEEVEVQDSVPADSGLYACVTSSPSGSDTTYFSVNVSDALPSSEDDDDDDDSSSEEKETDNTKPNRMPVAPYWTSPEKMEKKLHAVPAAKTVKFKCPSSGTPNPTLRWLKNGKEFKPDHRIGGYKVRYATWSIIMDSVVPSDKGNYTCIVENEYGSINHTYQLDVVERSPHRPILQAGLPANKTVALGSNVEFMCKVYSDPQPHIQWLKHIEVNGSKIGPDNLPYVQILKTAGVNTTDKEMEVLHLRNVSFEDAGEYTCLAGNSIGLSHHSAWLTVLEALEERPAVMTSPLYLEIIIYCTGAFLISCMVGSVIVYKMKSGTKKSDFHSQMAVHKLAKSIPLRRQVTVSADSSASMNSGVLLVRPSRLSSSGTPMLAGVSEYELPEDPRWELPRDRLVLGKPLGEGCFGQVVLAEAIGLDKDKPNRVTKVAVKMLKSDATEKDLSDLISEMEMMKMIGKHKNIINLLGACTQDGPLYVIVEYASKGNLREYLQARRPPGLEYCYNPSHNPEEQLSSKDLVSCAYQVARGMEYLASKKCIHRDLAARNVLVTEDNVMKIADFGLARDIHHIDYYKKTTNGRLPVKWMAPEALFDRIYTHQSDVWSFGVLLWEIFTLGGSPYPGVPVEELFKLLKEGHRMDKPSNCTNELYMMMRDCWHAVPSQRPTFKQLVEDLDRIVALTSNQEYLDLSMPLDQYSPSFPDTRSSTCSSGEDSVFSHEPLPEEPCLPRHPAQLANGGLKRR

| SMILES | IC50 [1] [nM] | FGFR3 Enz kobs [2] [min⁻¹] | IC50 [3] [nM] | IC50 [4] [nM] |
| --- | --- | --- | --- | --- |
| C=CC(=O)N1CCC(C#N)(C(=O)N2CCC(n3cc(-c4cc(OC)c5c(C#N)cnn5c4)cn3)CC2)CC1 [Example 14, 6-(1-(1-(1-acryloyl-4-cyanopiperidine-4-carbonyl)piperidin-4-yl)-1H-pyrazol-4-yl)-4-methoxypyrazolo[1,5-a]pyridine-3-carbonitrile] | 25 | 0.00997 | 3 | – |
| C=CC(=O)N1CCC(C(=O)N2CCC(n3cc(-c4cc(OC)c5c(C#N)cnn5c4)cn3)CC2)C(F)(F)C1 (stereo not drawn) [Example 15, 6-(1-(1-(1-acryloyl-3,3-difluoropiperidine-4-carbonyl)piperidin-4-yl)-1H-pyrazol-4-yl)-4-methoxypyrazolo[1,5-a]pyridine-3-carbonitrile] | 10 | 0.01716 | 2 | – |
| C=CC(=O)N1CC2(CCC(C(=O)N3CCC(n4cc(-c5cc(OC)c6c(C#N)cnn6c5)cn4)CC3)CC2)C1 [Example 21, 6-(1-(1-(2-acryloyl-2-azaspiro[3.5]nonane-7-carbonyl)piperidin-4-yl)-1H-pyrazol-4-yl)-4-methoxypyrazolo[1,5-a]pyridine-3-carbonitrile] | 40 | 0.00661 | 3 | – |
| C=CC(=O)Nc1cccc(C(=O)N2CCC(n3cc(-c4cc(OC)c5c(C#N)cnn5c4)cn3)CC2)c1 [Example 22, N-(3-(4-(4-(3-cyano-4-methoxypyrazolo[1,5-a]pyridin-6-yl)-1H-pyrazol-1-yl)piperidine-1-carbonyl)phenyl)acrylamide] | 87 | 0.0108 | 5 | – |
| C=CC(=O)Nc1ccc(C(=O)N2CCC[C@@H](n3cc(-c4cc(OC)c5c(C#N)cnn5c4)cn3)C2)cc1 [Example 23, (R)-N-(4-(3-(4-(3-cyano-4-methoxypyrazolo[1,5-a]pyridin-6-yl)-1H-pyrazol-1-yl)piperidine-1-carbonyl)phenyl)acrylamide] | 90 | 0.01176 | 12 | – |
| C=CC(=O)Nc1cccc(C(=O)N2CCC[C@@H](n3cc(-c4cc(OC)c5c(C#N)cnn5c4)cn3)C2)c1 [Example 24, (R)-N-(3-(3-(4-(3-cyano-4-methoxypyrazolo[1,5-a]pyridin-6-yl)-1H-pyrazol-1-yl)piperidine-1-carbonyl)phenyl)acrylamide] | 435 | 0.00708 | 23 | – |
| C=CC(=O)Nc1ccccc1C(=O)N1CCC[C@@H](n2cc(-c3cc(OC)c4c(C#N)cnn4c3)cn2)C1 [Example 25, (R)-N-(2-(3-(4-(3-cyano-4-methoxypyrazolo[1,5-a]pyridin-6-yl)-1H-pyrazol-1-yl)piperidine-1-carbonyl)phenyl)acrylamide] | 83 | 0.00672 | 18 | – |
| C=CC(=O)N1CC[C@H](C(=O)N2CCC(n3cc(-c4cc(OC)c5c(C#N)cnn5c4)cn3)CC2)C1 [Example 28, (S)-6-(1-(1-(1-acryloylpyrrolidine-3-carbonyl)piperidin-4-yl)-1H-pyrazol-4-yl)-4-methoxypyrazolo[1,5-a]pyridine-3-carbonitrile] | 285 | 0.00294 | 5 | – |
| C=CC(=O)N1CC[C@@H](C(=O)N2CCC(n3cc(-c4cc(OC)c5c(C#N)cnn5c4)cn3)CC2)C1 [Example 29, (R)-6-(1-(1-(1-acryloylpyrrolidine-3-carbonyl)piperidin-4-yl)-1H-pyrazol-4-yl)-4-methoxypyrazolo[1,5-a]pyridine-3-carbonitrile] | 359 | 0.00297 | 8 | – |
| C=CC(=O)N1CCC(F)(C(=O)N2CCC(n3cc(-c4cc(OC)c5c(C#N)cnn5c4)cn3)CC2)C1 (stereo not drawn) [Example 30, 6-(1-(1-(1-acryloyl-3-fluoropyrrolidine-3-carbonyl)piperidin-4-yl)-1H-pyrazol-4-yl)-4-methoxypyrazolo[1,5-a]pyridine-3-carbonitrile] | 23 | 0.01214 | 3 | – |
| C=CC(=O)N1CC(C)(C(=O)N2CCC(n3cc(-c4cc(OC)c5c(C#N)cnn5c4)cn3)CC2)C1 [Example 38, 6-(1-(1-(1-acryloyl-3-methylazetidine-3-carbonyl)piperidin-4-yl)-1H-pyrazol-4-yl)-4-methoxypyrazolo[1,5-a]pyridine-3-carbonitrile] | 9 | 0.01168 | 3 | – |
| C=CC(=O)N1CC(CC)(C(=O)N2CCC(n3cc(-c4cc(OC)c5c(C#N)cnn5c4)cn3)CC2)C1 [Example 40, 6-(1-(1-(1-acryloyl-3-ethylazetidine-3-carbonyl)piperidin-4-yl)-1H-pyrazol-4-yl)-4-methoxypyrazolo[1,5-a]pyridine-3-carbonitrile] | 16 | 0.01133 | 3 | – |
| C=CC(=O)Nc1cccc(C(=O)N2CC[C@@H](n3cc(-c4cc(OC)c5c(C#N)cnn5c4)cn3)C2)c1 [Example 56, (R)-N-(3-(3-(4-(3-cyano-4-methoxypyrazolo[1,5-a]pyridin-6-yl)-1H-pyrazol-1-yl)pyrrolidine-1-carbonyl)phenyl)acrylamide] | 182 | 0.01264 | 8 | – |
| C=CC(=O)N1CC(C(=O)N2CC[C@@H](n3cc(-c4cc(OC)c5c(C#N)cnn5c4)cn3)C2)C1 [Example 59, (R)-6-(1-(1-(1-acryloylazetidine-3-carbonyl)pyrrolidin-3-yl)-1H-pyrazol-4-yl)-4-methoxypyrazolo[1,5-a]pyridine-3-carbonitrile] | 667 | 0.00665 | 16 | – |
| C=CC(=O)Nc1ccc(C(=O)N2CC[C@H](n3cc(-c4cc(OC)c5c(C#N)cnn5c4)cn3)C2)cc1 [Example 66, (S)-N-(4-(3-(4-(3-cyano-4-methoxypyrazolo[1,5-a]pyridin-6-yl)-1H-pyrazol-1-yl)pyrrolidine-1-carbonyl)phenyl)acrylamide] | 82 | 0.0223 | 5 | – |
| C=CC(=O)Nc1ccc(C(=O)N2CC[C@H](n3cc(-c4cc(OC)c5c(C#N)cnn5c4)cn3)C2)c(C)c1 [Example 68, (S)-N-(4-(3-(4-(3-cyano-4-methoxypyrazolo[1,5-a]pyridin-6-yl)-1H-pyrazol-1-yl)pyrrolidine-1-carbonyl)-3-methylphenyl)acrylamide] | 187 | 0.0095 | 4 | – |
| C=CC(=O)Nc1ccc(C(=O)N2CC[C@H](n3cc(-c4cc(OC)c5c(C#N)cnn5c4)cn3)C2)c(OC)c1 [Example 69, (S)-N-(4-(3-(4-(3-cyano-4-methoxypyrazolo[1,5-a]pyridin-6-yl)-1H-pyrazol-1-yl)pyrrolidine-1-carbonyl)-3-methoxyphenyl)acrylamide] | 311 | 0.01649 | 6 | – |
| C=CC(=O)Nc1ccc(C(=O)N2CC[C@H](n3cc(-c4cc(OC)c5c(C#N)cnn5c4)cn3)C2)cc1C [Example 70, (S)-N-(4-(3-(4-(3-cyano-4-methoxypyrazolo[1,5-a]pyridin-6-yl)-1H-pyrazol-1-yl)pyrrolidine-1-carbonyl)-2-methylphenyl)acrylamide] | 104 | 0.0114 | 4 | – |
| C=CC(=O)Nc1ccc(C(=O)N2CC[C@H](n3cc(-c4cc(OC)c5c(C#N)cnn5c4)cn3)C2)cc1OC [Example 71, (S)-N-(4-(3-(4-(3-cyano-4-methoxypyrazolo[1,5-a]pyridin-6-yl)-1H-pyrazol-1-yl)pyrrolidine-1-carbonyl)-2-methoxyphenyl)acryla72 mide] | 35 | 0.02545 | 4 | – |
| C=CC(=O)N1CC(C(=O)N2CC[C@H](n3cc(-c4cc(OC)c5c(C#N)cnn5c4)cn3)C2)C1 [Example 73, (S)-6-(1-(1-(1-acryloylazetidine-3-carbonyl)pyrrolidin-3-yl)-1H-pyrazol-4-yl)-4-methoxypyrazolo[1,5-a]pyridine-3-carbonitrile] | 313 | 0.00908 | 4 | – |
| C=CC(=O)N1CC(C)(CN2CC(n3ncc(-c4cc(OC)c5c(C#N)cnn5c4)c3C)C2)C1 [Example 93, 6-(1-(1-((1-acryloyl-3-methylazetidin-3-yl)methyl)azetidin-3-yl)-5-methyl-1H-pyrazol-4-yl)-4-methoxypyrazolo[1,5-a]pyridine-3-carbonitrile] | – | 0.00896 | 127 | 1910 |
